Assay results from patent publication US8906868B2, “Aminoglycoside derivatives” (Rempex Pharmaceuticals, Inc., priority 2010, dated 2014).
In brackets after ≈: the same amount, converted by molar mass. Where two headings read alike, the source gives them in different places.

Legend:
ECM6011 aph(3′)-I = test: microbe, parasite or virus in culture; type: cell-based, Escherichia coli; conditions: Escherichia coli
How it was run: (§1)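 Minimum inhibitory concentration was the endpoint, read spectrophotometrically at 600 nm and verified visually after an 18-hour, 35° C incubation in CaMHB at 5×10^5 CFU/ml.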

ECM6009 aac(3)-II = test: microbe, parasite or virus in culture; type: cell-based, Escherichia coli; conditions: Escherichia coli
How it was run: as §1

ECM6010 ant(2″)-I = test: microbe, parasite or virus in culture; type: cell-based, Escherichia coli; conditions: Escherichia coli
How it was run: as §1

ECM6006 aph(3′)-III = test: microbe, parasite or virus in culture; type: cell-based, Escherichia coli; conditions: Escherichia coli
How it was run: as §1

ACM1005 ATCC 19004 = test: MIC, broth microdilution; type: cell-based, Acinetobacter baumannii; conditions: Acinetobacter baumannii, ATCC19004
How it was run: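 Using 2-fold compound series and a 5×10^5 CFU/ml inoculum in CaMHB, plates incubate 18 h at 35° C; growth inhibition is read as turbidity at 600 nm and verified visually.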

[1] = system: Pseudomonas aeruginosa pa1060 ant(2″); test: MIC, strains expressing aminoglycoside modifying enzymes; type: cell-based; conditions: read-out: MIC Pseudomonas aeruginosa pa1060 ant(2″)
Method: (§2) To compare microbiological activity of the test compounds, minimum inhibitory concentrations (MIC.s) were determined. Antibiotic MICs were obtained using the broth microdilution method according to Clinical and Laboratory Standards Institute (CLSI) approved guidelines (Methods for dilution antimicrobial susceptibility tests for bacteria that grow aerobically; approved standard—7th ed. CLSI document M7-A7. Clinical and Laboratory Standards Institute, Wayne, Pa., incorporated herein by reference in its entirety). Antibiotics were dissolved as specified by CLSI (Performance standards for antimicrobial susceptibility testing; Seventeenth informational supplement. CLSI document M100-S17. Clinical and Laboratory Standards Institute, Wayne, Pa., incorporated herein by reference in its entirety), and were serially diluted 2-fold in cation adjusted Mueller Hinton Broth (CaMHB) at 2× concentration. Bacterial inoculums were prepared in CaMHB by suspension of a colony from an agar plate that was prepared the previous day to obtain a final concentration of 5×10^5CFU/ml. The plates were incubated for 18 hours at 35° C. […] MIC.s were determined by reading the turbidity of plate wells using a SpectraMax Plus384 plate reader (Molecular Devices, Sunnyvale, Calif., USA) at 600 nm and were confirmed by visual inspection.

[2] = system: Acinetobacter baumannii ACM1008 aac(3)-Ia; test: as above; type: cell-based; conditions: read-out: MIC Acinetobacter baumannii ACM1008 aac(3)-Ia
Method: as §2

[3] = system: Pseudomonas aeruginosa pa1062 aac(3)-I; test: as above; type: cell-based; conditions: read-out: MIC Pseudomonas aeruginosa pa1062 aac(3)-I
Method: as §2

[4] = system: Escherichia coli EC1003 aac(3)I; test: as above; type: cell-based; conditions: read-out: MIC Escherichia coli EC1003 aac(3)I
Method: as §2

[5] = system: Escherichia coli ECM6008 aac(3)-I, ant(3″); test: as above; type: cell-based; conditions: read-out: MIC Escherichia coli ECM6008 aac(3)-I, ant(3″)
Method: as §2

[6] = system: Providencia stuartii PSM1000 aac(2′); test: as above; type: cell-based; conditions: read-out: MIC Providencia stuartii PSM1000 aac(2′)
Method: as §2

[7] = system: Escherichia coli ECM6012 armA; test: as above; type: cell-based; conditions: ECM6012ARMA, read-out: MIC Escherichia coli ECM6012 armA
Method: as §2

[8] = system: Escherichia coli ECM6005 aac(3)-II, aph(3′)-II; test: as above; type: cell-based; conditions: read-out: MIC Escherichia coli ECM6005 aac(3)-II, aph(3′)-II
Method: as §2

[9] = system: Escherichia coli ECM6004 aac(2′); test: as above; type: cell-based; conditions: read-out: MIC Escherichia coli ECM6004 aac(2′)
Method: as §2

[10] = system: Acinetobacter spp. AB1051 aph(3′)VI; test: as above; type: cell-based; conditions: read-out: MIC Acinetobacter spp. AB1051 aph(3′)VI
Method: as §2

[11] = system: Pseudomonas aeruginosa pa1061 aac(6′) (no efflux); test: as above; type: cell-based; conditions: read-out: MIC Pseudomonas aeruginosa pa1061 aac(6′) (no efflux)
Method: as §2

[12] = system: Acinetobacter baumannii (ATCC 19606); test: MIC, broth microdilution; conditions: Acinetobacter baumannii
[13] = system: Human kidney cortex proximal tubule cells (HK-2); test: Aminoglycoside cytotoxicity in HK-2 cells (Alamar Blue); type: cell-based
Method: (§3) Human kidney cortex proximal tubule cells (HK-2) were purchased from ATCC and maintained according to manufacturer's recommendations in Keratinocyte Serum-Free Media (SFM; Invitrogen), with 0.05 mg/ml bovine pituitary extract and 5 ng/ml of Epidermal growth factor.
(§4) Solutions of aminoglycosides at a concentration of 50 mg/mL (both control and novel test compounds) were prepared in sterile deionized water. Before treatment of cells, the concentrated drug solutions were diluted to the appropriate concentration in Keratinocyte SFM {20, 10, 5, 2.5, 1.25, 0.6, 0.3, and 0 mM}. Pentamidine was used as a positive control.
(§5) HK-2 cells were seeded at 2.5*10^4 cells/well density in 96-well plates in Keratinocyte SFM and placed in a 37° C. tissue culture CO2 incubator. […]. Each treatment was performed in duplicate. […] Drug solutions were aspirated and replaced with 0.1 ml of 5% Alamar Blue (Abd Serotec) cell proliferation reagent in Keratinocyte SFM. Plates were read on a Molecular Devices Gemini EM fluorometer pre-warmed at 37° C. at […]. Plates were read at 0 and 4 hrs, and were incubated at 37° C. in a CO2 incubator in between reads. The fluorescence signal at the 0 h timepoint was subtracted from that at 4 h to account for background fluorescence.
(§6) The cytotoxicity data were reported as the amount of drug producing a 50% decrease in Alamar Blue signal relative to the no drug treatment control.

[14] = as above; type: cell-based, Human; conditions: human
Method: as §3, §4, §5, §6

[15] = read-out: Compound MIC on Bacterial Strains: ECM6011 aph(3′)-I
[16] = read-out: MIC Escherichia coli ECM6011 aph(3′)-I
[17] = read-out: Compound MIC on Bacterial Strains: ECM6009 aac(3)-II
[18] = read-out: MIC Escherichia coli ECM6009 aac(3)-II, aph(3′)
[19] = read-out: Compound MIC on Bacterial Strains: ECM6010 ant(2″)-I
[20] = read-out: MIC Escherichia coli ECM6010 ant(2″)
[21] = read-out: Compound MIC on Bacterial Strains: ECM6006 aph(3′)-III
[22] = read-out: MIC Escherichia coli ECM6006 aph(3′)-III
[23] = Table 4, read-out: Compound MIC on Bacterial Strains: Acinetobacter baumannii ACM1005 ATCC 19004
[24] = Table 7, read-out: MIC Acinetobacter baumannii ACM1005 ATCC 19004
[25] = ATCC19606, read-out: Compound MIC on Bacterial Strains: A. baumannii ATCC 19606
[26] = ATCC19606, read-out: MIC Acinetobacter baumannii ACM1003 ATCC 19606

Row | Structure (SMILES) | MIC (ECM6011 aph(3′)-I; [15]) | MIC (ECM6011 aph(3′)-I; [16]) | MIC (ECM6009 aac(3)-II; [17]) | MIC (ECM6009 aac(3)-II; [18]) | MIC (ECM6010 ant(2″)-I; [19]) | MIC (ECM6010 ant(2″)-I; [20]) | MIC (ECM6006 aph(3′)-III; [21]) | MIC (ECM6006 aph(3′)-III; [22]) | MIC (ACM1005 ATCC 19004; [23]) | MIC (ACM1005 ATCC 19004; [24]) | MIC [1] | MIC [2] | MIC [3] | MIC [4] | MIC [5] | MIC [6] | MIC [7] | MIC [8] | MIC [9] | MIC [10] | further results
1 | CN[C@@H]1C(O)[C@@H](OC2C(O)C(O[C@H]3O[C@H](CNC[C@@H](O)CO)CCC3N)[C@@H](N)C[C@H]2NC(=O)[C@@H](O)CN)OCC1(C)O (some centres unmarked) [Compound 44] | < 1 µg/mL | < 1 µg/mL | < 1 µg/mL | < 1 µg/mL | < 1 µg/mL | < 1 µg/mL | < 1 µg/mL | 1 to 8 µg/mL (≈ 1.64 to 13.1 µM) | 1 to 8 µg/mL (≈ 1.64 to 13.1 µM) | 1 to 8 µg/mL (≈ 1.64 to 13.1 µM) | < 1 µg/mL | 1 to 8 µg/mL (≈ 1.64 to 13.1 µM) | > 8 µg/mL | < 1 µg/mL | < 1 µg/mL | > 8 µg/mL | > 8 µg/mL | < 1 µg/mL | < 1 µg/mL | 1 to 8 µg/mL (≈ 1.64 to 13.1 µM) | MIC [11]: < 1 µg/mL; MIC [12, 25]: > 8 µg/mL; MIC [12, 26]: > 8 µg/mL; cytotoxicity in HK-2 cells (in words) [13]: essentially non-cytotoxic; IC50 at 24 h [14]: > 20 mM
2 | CN[C@@H]1[C@@H](O)[C@@H](O[C@@H]2[C@@H](O)[C@H](O[C@H]3O[C@H](CNC[C@H](O)CO)CC[C@H]3N)[C@@H](N)C[C@H]2NC(=O)[C@@H](O)CN)OC[C@]1(C)O [Compound 45, (S)-3-amino-N-((1R,2S,3S,4R,5S)-5-amino-4-((2R,3R,6S)-3-amino-6-(((S)-2,3-dihydroxypropylamino)methyl)tetrahydro-2H-pyran-2-yloxy)-2-((2R,3R,4R,5R)-3,5-dihydroxy-5-methyl-4-(methylamino)tetrahydro-2H-pyran-2-yloxy)-3-hydroxycyclohexyl)-2-hydroxypropanamide] | < 1 µg/mL | < 1 µg/mL | < 1 µg/mL | < 1 µg/mL | < 1 µg/mL | < 1 µg/mL | < 1 µg/mL | 1 to 8 µg/mL (≈ 1.64 to 13.1 µM) | 1 to 8 µg/mL (≈ 1.64 to 13.1 µM) | 1 to 8 µg/mL (≈ 1.64 to 13.1 µM) | 1 to 8 µg/mL (≈ 1.64 to 13.1 µM) | 1 to 8 µg/mL (≈ 1.64 to 13.1 µM) | > 8 µg/mL | < 1 µg/mL | 1 to 8 µg/mL (≈ 1.64 to 13.1 µM) | > 8 µg/mL | > 8 µg/mL | < 1 µg/mL | < 1 µg/mL | 1 to 8 µg/mL (≈ 1.64 to 13.1 µM) | MIC [11]: < 1 µg/mL; MIC [12, 25]: > 8 µg/mL; MIC [12, 26]: > 8 µg/mL; fold more cytotoxic than compound 44 ([13]; human, 48 h): at least 2 fold; IC50 at 24 h [14]: 10 mM
